The values below come from US10093644B2, “3-[(Benzo[D][1,3]dioxolan-4-yl)-oxy]-3-arylpropylamine type compounds and applications thereof” (NHWA PHARMA. CORPORATION, priority 2014, dated 2018).

“And” between values parts separate entries of the source, which are not always exact repeats. Equal values may be shown once. Read-outs that look alike come from different tables or passages of the source.

For data set [1], the system named is mice. The data set can be described thus: Mice tail suspension test (acquired despair experiment). The class given is in vivo. Particulars: for immobilized time of mice tail suspension: i.g. (gavage); for ED50: Mus musculus, read-out: tail suspension ED50.
For data set [2], the system named is mice. The data set can be described thus: Mice forced swimming test (acquired despair experiment). The class given is in vivo. The following applies: for immobilized time of mice swimming: i.g. (gavage); for ED50: Mus musculus, read-out: swimming ED50.
Data set [3] can be described thus: Therapeutic index evaluation (LD50/ED50). The class given is in vivo. The following applies: for therapeutic index (swimming): LD50/ED50, swimming ED50; for therapeutic index (tail suspension): LD50/ED50, tail suspension ED50; for LD50: half lethal dose.
Data set [4] is described as follows: Acid stability evaluation in diluted hydrochloric acid. The class given is physicochemical. The following applies: 0.1 mol/L hydrochloric acid. As for the experimental part:
The compound according to the invention was incubated in diluted hydrochloric acid (0.1 mol/L) at 37° C. for 2 h to test the decomposition of the compound (shown as %) and the results were shown as follows.

Turning to `CNCCC(Oc1cccc2c1OCO2)c1cccs1` (centres unmarked) [ammuxetine, reference compound], in the data set on mice [1] (half effective dose), the “tail suspension ED50” value is 3.89 mg/kg. For the same compound, in the data set on mice [2] (half effective dose), the “swimming ED50” value worked out at 2.58 mg/kg. In addition, in data set [3], the “therapeutic index (swimming)” value worked out at 68.9, the “therapeutic index (tail suspension)” value was found to be 45.7 and the median lethal dose (LD50) (commonly the dose expected to kill half of the subjects tested) is recorded as 177.8 mg/kg. For the same compound, the “ratio of the compound after incubation in diluted hydrochloric acid at 37° C. for 2 h” value (from here on “ratio of the compound after incubation”) in data set [4] was 44%.

For `CNCCC(Oc1cccc2c1OCO2)c1ccccc1.O=C(O)C(=O)O` (centres unmarked) [compound 2, 3-[(benzo[d][1,3]dioxolan-4-yl)-oxy]-N-methyl-3-phenylpropylamine oxalate], the “immobilized time of mice tail suspension” value was determined as 44.3 ± 34.5 s in the data set with mice [1] (5 mg/kg, oxalate form) and 8.2 ± 13.7 s in the data set with mice [1] (10 mg/kg, oxalate form). In addition, the ED50 (usually the midpoint of the dose-response relation) in the data set with mice [1] (half effective dose) was found to be 7.06 mg/kg; with mice [2] (half effective dose), 2 mg/kg. The “immobilized time of mice swimming” value in the data set on mice [2] (5 mg/kg, oxalate form) is 38.9 ± 34.5 s; in the data set with mice [2] (10 mg/kg, oxalate form) it was 28.6 ± 19.3 s. Moreover, the “therapeutic index (swimming)” value in data set [3] came out at 88.8. In addition, the “therapeutic index (tail suspension)” value in data set [3] came out at 25.2. Further, the LD50 in data set [3] (in vivo, read-out: LD50) stood at 178 mg/kg. Further, the “ratio of the compound after incubation” value in data set [4] was determined as 99%.

With `CN(C)CCC(Oc1cccc2c1OCO2)c1ccc(F)cc1.O=C(O)C(=O)O` (centres unmarked) [compound 3, 3-[(benzo[d][1,3]dioxolan-4-yl)-oxy]-3-(4-fluorophenyl)-N,N-dimethylpropylamine oxalate], the “immobilized time of mice tail suspension” value was found to be 22.0 ± 28.2 s in the data set with mice [1] (5 mg/kg, oxalate form) and 9.2 ± 13.3 s in the data set on mice [1] (10 mg/kg, oxalate form). Further, the 50% effective dose (ED50) in the data set with mice [1] (half effective dose) amounted to 4.32 mg/kg; in the data set with mice [2] (half effective dose), 2.28 mg/kg. Besides, the “immobilized time of mice swimming” value is on record as 42.0 ± 56.1 s with mice [2] (5 mg/kg, oxalate form) and 31.0 ± 54.2 s in the data set with mice [2] (10 mg/kg, oxalate form). Besides, the “therapeutic index (swimming)” value in data set [3] came out at 155.6. Moreover, in data set [3], the “therapeutic index (tail suspension)” value came out at 82.2. Further, in data set [3] (in vivo, read-out: LD50), the median lethal dose (LD50) amounted to 355 mg/kg. In data set [4], the “ratio of the compound after incubation” value is recorded as 99%.

Regarding `CNCCC(Oc1cccc2c1OCO2)c1ccc(F)cc1.O=C(O)C(=O)O` (centres unmarked) [compound 4, 3-[(benzo[d][1,3]dioxolan-4-yl)-oxy]-3-(4-fluorophenyl)-N-methylpropylamine oxalate], the “immobilized time of mice tail suspension” value with mice [1] (5 mg/kg, oxalate form) is 21.4 ± 12.8 s; in the data set on mice [1] (10 mg/kg, oxalate form), 29.6 ± 13.1 s. For the same compound, the “immobilized time of mice swimming” value with mice [2] (5 mg/kg, oxalate form) came out at 74.1 ± 36.8 s; with mice [2] (10 mg/kg, oxalate form), 60.1 ± 42.2 s. Besides, the “ratio of the compound after incubation” value in data set [4] is given as 99%.

Regarding `CNCCC(Oc1cccc2c1OCO2)c1cccc(OC)c1.O=C(O)C(=O)O` (centres unmarked) [compound 12, 3-[(benzo[d][1,3]dioxolan-4-yl)-oxy]-3-(3-methoxylphenyl)-N-methylpropylamine oxalate], the “immobilized time of mice tail suspension” value in the data set with mice [1] (5 mg/kg, oxalate form) came out at 64.1 ± 24.5 s; in the data set on mice [1] (10 mg/kg, oxalate form), 33.0 ± 15.6 s. The values for the ED50 with mice [1] (half effective dose) and in the data set on mice [2] (half effective dose) were 8.57 mg/kg and 5.28 mg/kg, respectively. Further, the “immobilized time of mice swimming” value came out at 92.0 ± 45.5 s in the data set on mice [2] (5 mg/kg, oxalate form) and 58.2 ± 45.3 s with mice [2] (10 mg/kg, oxalate form). In data set [3], the “therapeutic index (swimming)” value was 60.7. Moreover, the “therapeutic index (tail suspension)” value in data set [3] was 37.4. Also, the LD50 in data set [3] (in vivo, read-out: LD50) is 320 mg/kg. Besides, in data set [4], the “ratio of the compound after incubation” value is reported as 99%.

Take `Cc1cccc(C(CCN(C)C)Oc2cccc3c2OCO3)c1.O=C(O)C(=O)O` (centres unmarked) [compound 13, 3-[(benzo[d][1,3]dioxolan-4-yl)-oxy]-3-(3-methylphenyl)-N,N-dimethylpropylamine oxalate]: the “immobilized time of mice tail suspension” value was found to be 71.3 ± 32.7 s with mice [1] (5 mg/kg, oxalate form) and 29.8 ± 21.3 s in the data set with mice [1] (10 mg/kg, oxalate form). For the same compound, the “immobilized time of mice swimming” value in the data set on mice [2] (5 mg/kg, oxalate form) worked out at 87.9 ± 55.6 s; with mice [2] (10 mg/kg, oxalate form), 60.2 ± 38.6 s. Besides, in data set [4], the “ratio of the compound after incubation” value is on record as 99%.

`CNCC[C@H](Oc1cccc2ccccc12)c1cccs1` [duloxetine, reference compound]: the “immobilized time of mice tail suspension” value is 34.7 ± 42.3 s with mice [1] (10 mg/kg, oxalate form) and 17.8 ± 18.5 s in the data set on mice [1] (20 mg/kg). Moreover, the ED50 with mice [1] worked out at 5.96 mg/kg; with mice [2], 4.94 mg/kg. Besides, the “immobilized time of mice swimming” value with mice [2] (10 mg/kg, oxalate form) came to 76.0 ± 57.8 s; in the data set on mice [2] (20 mg/kg), 41.2 ± 33.3 s. Further, the “therapeutic index (swimming)” value in data set [3] is 98.8 and 98.9. The “therapeutic index (tail suspension)” value in data set [3] is 82.1. The LD50 in data set [3] (in vivo, read-out: LD50) stood at 489 mg/kg. Besides, in data set [4], the “ratio of the compound after incubation” value worked out at 18%.
